In brackets after ≈: the same amount, converted by molar mass.
Assays:
[1] = system: Staphylococcus epidermidis; test: Antibacterial activity against erythromycin-resistant Staphylococcus epidermidis 19-4 assessed as inhibition of visible bacterial growth incubated for 18 hrs by broth microdilution method; assay type: functional
Haemophilus influenzae [2] = test: Antibacterial activity against Haemophilus influenzae HIN 19-15 assessed as inhibition of bacterial growth incubated for 20 to 24 hrs by CLSI based broth microdilution method; assay type: functional; conditions: time 20-24 hrs
Streptococcus pyogenes = test: Antibacterial activity against erythromycin-resistant Streptococcus pyogenes ATCC 19615 assessed as inhibition of visible bacterial growth incubated for 18 hrs by broth microdilution method; assay type: functional
Streptococcus pneumoniae [3] = test: Antibacterial activity against erythromycin-resistant Streptococcus pneumoniae SPN19-8 assessed as inhibition of visible bacterial growth incubated for 18 hrs by broth microdilution method; assay type: functional
Streptococcus agalactiae [4] = test: Antibacterial activity against erythromycin-resistant Streptococcus agalactiae 19-9 assessed as inhibition of visible bacterial growth incubated for 18 hrs by broth microdilution method; assay type: functional
[5] = system: Staphylococcus epidermidis; test: Antibacterial activity against erythromycin-resistant Staphylococcus epidermidis 19-9 assessed as inhibition of visible bacterial growth incubated for 18 hrs by broth microdilution method; assay type: functional
[6] = system: Staphylococcus epidermidis; test: Antibacterial activity against erythromycin-resistant Staphylococcus epidermidis 19-11 assessed as inhibition of visible bacterial growth incubated for 18 hrs by broth microdilution method; assay type: functional
[7] = system: Staphylococcus epidermidis; test: Antibacterial activity against erythromycin-resistant Staphylococcus epidermidis 19-5 assessed as inhibition of visible bacterial growth incubated for 18 hrs by broth microdilution method; assay type: functional
[8] = system: Staphylococcus epidermidis; test: Antibacterial activity against erythromycin-resistant Staphylococcus epidermidis 19-6 assessed as inhibition of visible bacterial growth incubated for 18 hrs by broth microdilution method; assay type: functional
[9] = Metabolic stability in human liver microsome assessed as half life measured at 60 mins by LC-MS/MS analysis; assay type: ADME; conditions: liver microsomes
Haemophilus influenzae [10] = test: Antibacterial activity against Haemophilus influenzae HIN 20-18 assessed as inhibition of bacterial growth incubated for 20 to 24 hrs by CLSI based broth microdilution method; assay type: functional; conditions: time 20-24 hrs
Streptococcus pneumoniae [11] = test: Antibacterial activity against erythromycin-resistant Streptococcus pneumoniae SPN19-14 assessed as inhibition of visible bacterial growth incubated for 18 hrs by broth microdilution method; assay type: functional
[12] = Cytotoxicity against mouse AML12 cells assessed as reduction in cell viability incubated for 48 hrs by MTT assay; assay type: toxicity, cell-based
Moraxella catarrhalis [13] = test: Antibacterial activity against Moraxella catarrhalis BCA 19-5 assessed as inhibition of bacterial growth incubated for 24 hrs by CLSI based broth microdilution method; assay type: functional; conditions: Moraxella catarrhalis, BCA 19-5, 24 h, read-out: MIC
Streptococcus pneumoniae [14] = test: Antibacterial activity against erythromycin-resistant Streptococcus pneumoniae SPN19-13 assessed as inhibition of visible bacterial growth incubated for 18 hrs by broth microdilution method; assay type: functional
Moraxella catarrhalis [15] = test: Antibacterial activity against Moraxella catarrhalis BCA 19-31 assessed as inhibition of bacterial growth incubated for 24 hrs by CLSI based broth microdilution method; assay type: functional; conditions: BCA 19-31, 24 h
[16] = Metabolic stability in human liver microsome assessed as intrinsic clearance measured at 60 mins by LC-MS/MS analysis; assay type: ADME; conditions: liver microsomes, read-out: CLH
[17] = Metabolic stability in human liver microsome assessed as parent compound remaining in presence of NADPH measured at 60 mins by LC-MS/MS analysis; assay type: ADME; conditions: liver microsomes, read-out: Stability
[18] = system: Staphylococcus epidermidis; test: Antibacterial activity against erythromycin-resistant Staphylococcus epidermidis 19-8 assessed as inhibition of visible bacterial growth incubated for 18 hrs by broth microdilution method; assay type: functional
[19] = Metabolic stability in human liver microsome assessed as parent compound remaining in absence of NADPH measured at 60 mins by LC-MS/MS analysis; assay type: ADME; conditions: liver microsomes, read-out: Stability
Moraxella catarrhalis [20] = test: Antibacterial activity against Moraxella catarrhalis BCA 19-6 assessed as inhibition of bacterial growth incubated for 24 hrs by CLSI based broth microdilution method; assay type: functional; conditions: Moraxella catarrhalis, BCA 19-6, 24 h, read-out: MIC
Haemophilus influenzae [21] = test: Antibacterial activity against Haemophilus influenzae HIN 19-18 assessed as inhibition of bacterial growth incubated for 20 to 24 hrs by CLSI based broth microdilution method; assay type: functional; conditions: HIN 19-18, time 20-24 hrs
[22] = system: Staphylococcus epidermidis; test: Potency index, ratio of telithromycin MIC to test compound MIC for antibacterial activity against erythromycin-resistant Staphylococcus epidermidis 19-5 assessed as inhibition of visible bacterial growth incubated for 18 hrs by broth microdilution method; assay type: functional
Streptococcus agalactiae [23] = test: Antibacterial activity against erythromycin-resistant Streptococcus agalactiae 19-8 assessed as inhibition of visible bacterial growth incubated for 18 hrs by broth microdilution method; assay type: functional
Streptococcus pneumoniae [24] = test: Potency index, ratio of telithromycin MIC to test compound MIC for antibacterial activity against Streptococcus pneumoniae SPN19-13 assessed as inhibition of visible bacterial growth incubated for 18 hrs by broth microdilution method; assay type: functional
[25] = system: Staphylococcus epidermidis; test: Potency index, ratio of telithromycin MIC to test compound MIC for antibacterial activity against erythromycin-resistant Staphylococcus epidermidis 19-6 assessed as inhibition of visible bacterial growth incubated for 18 hrs by broth microdilution method; assay type: functional
Streptococcus pneumoniae [26] = test: Potency index, ratio of telithromycin MIC to test compound MIC for antibacterial activity against Streptococcus pneumoniae SPN19-14 assessed as inhibition of visible bacterial growth incubated for 18 hrs by broth microdilution method; assay type: functional
[27] = system: Staphylococcus epidermidis; test: Potency index, ratio of telithromycin MIC to test compound MIC for antibacterial activity against erythromycin-resistant Staphylococcus epidermidis 19-8 assessed as inhibition of visible bacterial growth incubated for 18 hrs by broth microdilution method; assay type: functional
[28] = system: Staphylococcus epidermidis; test: Potency index, ratio of telithromycin MIC to test compound MIC for antibacterial activity against erythromycin-resistant Staphylococcus epidermidis 19-4 assessed as inhibition of visible bacterial growth incubated for 18 hrs by broth microdilution method; assay type: functional
[29] = system: Staphylococcus epidermidis; test: Potency index, ratio of telithromycin MIC to test compound MIC for antibacterial activity against erythromycin-resistant Staphylococcus epidermidis 19-9 assessed as inhibition of visible bacterial growth incubated for 18 hrs by broth microdilution method; assay type: functional
Streptococcus pneumoniae [30] = test: Potency index, ratio of telithromycin MIC to test compound MIC for antibacterial activity against Streptococcus pneumoniae SPN19-8 assessed as inhibition of visible bacterial growth incubated for 18 hrs by broth microdilution method; assay type: functional
[31] = system: Staphylococcus epidermidis; test: Potency index, ratio of telithromycin MIC to test compound MIC for antibacterial activity against erythromycin-resistant Staphylococcus epidermidis 19-11 assessed as inhibition of visible bacterial growth incubated for 18 hrs by broth microdilution method; assay type: functional

SMILES	MIC [1]	MIC (Haemophilus influenzae [2])	MIC (Streptococcus pyogenes)	MIC (Streptococcus pneumoniae [3])	MIC (Streptococcus agalactiae [4])	MIC [5]	MIC [6]	MIC [7]	MIC [8]	MIC (Streptococcus pneumoniae [11])	CC50 at 48 h [12]	MIC (Moraxella catarrhalis [13])	MIC (Streptococcus pneumoniae [14])	MIC (Moraxella catarrhalis [15])	MIC [18]	MIC (Moraxella catarrhalis [20])	MIC (Haemophilus influenzae [21])	Ratio [22]	Ratio [25]	Ratio [27]	further results
CC[C@H]1OC(=O)[C@@](C)(F)C(=O)[C@H](C)[C@@H](O[C@@H]2O[C@H](C)C[C@H](N(C)C)[C@H]2O)[C@](C)(OC)C[C@@H](C)C(=O)[C@H](C)[C@H]2N(CCCOC(=O)Nc3ccccc3C)C(=O)O[C@]12C	0.06 µg/mL (≈ 0.073 µM)	4 µg/mL (≈ 4.87 µM)	< 0.03 µg/mL	0.125 µg/mL (≈ 0.152 µM)	0.5 µg/mL (≈ 0.608 µM)	0.25 µg/mL (≈ 0.304 µM)	< 0.03 µg/mL	< 0.03 µg/mL	0.125 µg/mL (≈ 0.152 µM)	0.125 µg/mL (≈ 0.152 µM)	> 100 µM	0.125 µg/mL (≈ 0.152 µM)	0.125 µg/mL (≈ 0.152 µM)	0.05 µg/mL (≈ 0.0608 µM)	0.06 µg/mL (≈ 0.073 µM)	0.125 µg/mL (≈ 0.152 µM)	2 µg/mL (≈ 2.43 µM)	–	–	–	half-life [9]: 2.93 h; MIC (Haemophilus influenzae [10]): 16 µg/mL (≈ 19.5 µM); microsomal CLint [16]: 4 µL/min/mg; remaining at 1 h [17]: 73.3%; remaining at 1 h [19]: 101%
CC[C@H]1OC(=O)[C@@](C)(F)C(=O)[C@H](C)[C@@H](O[C@@H]2O[C@H](C)C[C@H](N(C)C)[C@H]2O)[C@](C)(OC)C[C@@H](C)C(=O)[C@H](C)[C@H]2N(CCCOC(=O)Nc3ccc(F)cc3)C(=O)O[C@]12C	< 0.03 µg/mL	4 µg/mL (≈ 4.84 µM)	< 0.03 µg/mL	< 0.03 µg/mL	0.25 µg/mL (≈ 0.303 µM)	0.06 µg/mL (≈ 0.0726 µM)	< 0.03 µg/mL	< 0.03 µg/mL	< 0.03 µg/mL	< 0.03 µg/mL	97.9 µM	0.03 µg/mL (≈ 0.0363 µM)	< 0.03 µg/mL	0.03 µg/mL (≈ 0.0363 µM)	< 0.03 µg/mL	0.03 µg/mL (≈ 0.0363 µM)	2 µg/mL (≈ 2.42 µM)	4	4	4	MIC (Streptococcus agalactiae [23]): < 0.03 µg/mL; Ratio (Streptococcus pneumoniae [24]): <4; Ratio (Streptococcus pneumoniae [26]): <4; half-life [9]: 0.0633 h; Ratio [28]: 4; Ratio [29]: 4; Ratio (Streptococcus pneumoniae [30]): <4; microsomal CLint [16]: 183 µL/min/mg; remaining at 1 h [17]: 0.4%; Ratio [31]: 4; remaining at 1 h [19]: 95%
CC[C@H]1OC(=O)[C@@](C)(F)C(=O)[C@H](C)[C@@H](O[C@@H]2O[C@H](C)C[C@H](N(C)C)[C@H]2O)[C@](C)(OC)C[C@@H](C)C(=O)[C@H](C)[C@H]2N(CCCOC(=O)Nc3cccc(SC)c3)C(=O)O[C@]12C	< 0.03 µg/mL	2 µg/mL (≈ 2.34 µM)	< 0.03 µg/mL	< 0.03 µg/mL	0.125 µg/mL (≈ 0.146 µM)	< 0.03 µg/mL	0.03 µg/mL (≈ 0.0351 µM)	0.03 µg/mL (≈ 0.0351 µM)	0.03 µg/mL (≈ 0.0351 µM)	< 0.03 µg/mL	34.4 µM	< 0.03 µg/mL	< 0.03 µg/mL	< 0.03 µg/mL	< 0.03 µg/mL	< 0.03 µg/mL	1 µg/mL (≈ 1.17 µM)	4	4	4	MIC (Streptococcus agalactiae [23]): < 0.03 µg/mL; Ratio [28]: 4; Ratio [29]: 4; Ratio [31]: 4
CC[C@H]1OC(=O)[C@@](C)(F)C(=O)[C@H](C)[C@@H](O[C@@H]2O[C@H](C)C[C@H](N(C)C)[C@H]2O)[C@](C)(OC)C[C@@H](C)C(=O)[C@H](C)[C@H]2N(CCCOC(=O)Nc3ccc4sccc4c3)C(=O)O[C@]12C	0.03 µg/mL (≈ 0.0347 µM)	–	< 0.03 µg/mL	0.06 µg/mL (≈ 0.0694 µM)	0.25 µg/mL (≈ 0.289 µM)	1 µg/mL (≈ 1.16 µM)	< 0.03 µg/mL	< 0.03 µg/mL	0.06 µg/mL (≈ 0.0694 µM)	0.03 µg/mL (≈ 0.0347 µM)	11.6 µM	–	< 0.03 µg/mL	–	0.06 µg/mL (≈ 0.0694 µM)	–	–	4	4	4	Ratio (Streptococcus pneumoniae [24]): <4; Ratio (Streptococcus pneumoniae [26]): <4; Ratio [28]: 4; Ratio [29]: 4; Ratio (Streptococcus pneumoniae [30]): <4; Ratio [31]: 4

Source: ChEMBL document CHEMBL5543097, “Synthesis and structure-activity relationships of novel 14-membered 2-fluoro ketolides with structural modification at the C11 position” (Eur J Med Chem, 2024)
